{"source": "patent US10696655B2", "about": "“Therapeutic compounds and uses thereof” (GENENTECH, INC., priority 2017, dated 2020)", "data": [{"tested_on": "MYC", "assay": "MYC RPL19 QuantiGene assay in MV-4-11 cells", "format": "cell-based", "details": "Homo sapiens, MV4-11, compound 4 hours", "excerpt": "MYC RPL19 QuantiGene assay in MV-4-11 Cells", "units": {"IC50": "nM"}, "values": [{"smiles": "CNC(=O)N1CCNc2ccc(N3CCCc4cc(-c5cnn(C)c5)c(C(F)F)cc43)cc2C1", "note": "[Example 16, 7-[7-(difluoromethyl)-6-(1-methylpyrazol-4-yl)-3,4-dihydro-2H-quinolin-1-yl]-N-methyl-1,2,3,5-tetrahydro-1,4-benzodiazepine-4-carboxamide]", "IC50": 173}, {"smiles": "CC(=O)N1CCc2c(cc(N3CCCc4cc(-c5cnn(C)c5)c(C(F)F)cc43)c(=O)n2C)C1", "note": "[Example 17]", "IC50": 2660}, {"smiles": "C[C@H]1Nc2c(cccc2N2CCCc3cc(-c4cnn(C)c4)c(C(F)F)cc32)NC1=O", "note": "[Example 81, (R)-5-(7-(difluoromethyl)-6-(1-methyl-1H-pyrazol-4-yl)-3,4-dihydroquinolin-1(2H)-yl)-3-methyl-3,4-dihydroquinoxalin-2(1H)-one]", "IC50": 131}]}, {"target": "CBP (Homo sapiens (Human), UniProt Q92793)", "sequence (Q92793 whole entry)": "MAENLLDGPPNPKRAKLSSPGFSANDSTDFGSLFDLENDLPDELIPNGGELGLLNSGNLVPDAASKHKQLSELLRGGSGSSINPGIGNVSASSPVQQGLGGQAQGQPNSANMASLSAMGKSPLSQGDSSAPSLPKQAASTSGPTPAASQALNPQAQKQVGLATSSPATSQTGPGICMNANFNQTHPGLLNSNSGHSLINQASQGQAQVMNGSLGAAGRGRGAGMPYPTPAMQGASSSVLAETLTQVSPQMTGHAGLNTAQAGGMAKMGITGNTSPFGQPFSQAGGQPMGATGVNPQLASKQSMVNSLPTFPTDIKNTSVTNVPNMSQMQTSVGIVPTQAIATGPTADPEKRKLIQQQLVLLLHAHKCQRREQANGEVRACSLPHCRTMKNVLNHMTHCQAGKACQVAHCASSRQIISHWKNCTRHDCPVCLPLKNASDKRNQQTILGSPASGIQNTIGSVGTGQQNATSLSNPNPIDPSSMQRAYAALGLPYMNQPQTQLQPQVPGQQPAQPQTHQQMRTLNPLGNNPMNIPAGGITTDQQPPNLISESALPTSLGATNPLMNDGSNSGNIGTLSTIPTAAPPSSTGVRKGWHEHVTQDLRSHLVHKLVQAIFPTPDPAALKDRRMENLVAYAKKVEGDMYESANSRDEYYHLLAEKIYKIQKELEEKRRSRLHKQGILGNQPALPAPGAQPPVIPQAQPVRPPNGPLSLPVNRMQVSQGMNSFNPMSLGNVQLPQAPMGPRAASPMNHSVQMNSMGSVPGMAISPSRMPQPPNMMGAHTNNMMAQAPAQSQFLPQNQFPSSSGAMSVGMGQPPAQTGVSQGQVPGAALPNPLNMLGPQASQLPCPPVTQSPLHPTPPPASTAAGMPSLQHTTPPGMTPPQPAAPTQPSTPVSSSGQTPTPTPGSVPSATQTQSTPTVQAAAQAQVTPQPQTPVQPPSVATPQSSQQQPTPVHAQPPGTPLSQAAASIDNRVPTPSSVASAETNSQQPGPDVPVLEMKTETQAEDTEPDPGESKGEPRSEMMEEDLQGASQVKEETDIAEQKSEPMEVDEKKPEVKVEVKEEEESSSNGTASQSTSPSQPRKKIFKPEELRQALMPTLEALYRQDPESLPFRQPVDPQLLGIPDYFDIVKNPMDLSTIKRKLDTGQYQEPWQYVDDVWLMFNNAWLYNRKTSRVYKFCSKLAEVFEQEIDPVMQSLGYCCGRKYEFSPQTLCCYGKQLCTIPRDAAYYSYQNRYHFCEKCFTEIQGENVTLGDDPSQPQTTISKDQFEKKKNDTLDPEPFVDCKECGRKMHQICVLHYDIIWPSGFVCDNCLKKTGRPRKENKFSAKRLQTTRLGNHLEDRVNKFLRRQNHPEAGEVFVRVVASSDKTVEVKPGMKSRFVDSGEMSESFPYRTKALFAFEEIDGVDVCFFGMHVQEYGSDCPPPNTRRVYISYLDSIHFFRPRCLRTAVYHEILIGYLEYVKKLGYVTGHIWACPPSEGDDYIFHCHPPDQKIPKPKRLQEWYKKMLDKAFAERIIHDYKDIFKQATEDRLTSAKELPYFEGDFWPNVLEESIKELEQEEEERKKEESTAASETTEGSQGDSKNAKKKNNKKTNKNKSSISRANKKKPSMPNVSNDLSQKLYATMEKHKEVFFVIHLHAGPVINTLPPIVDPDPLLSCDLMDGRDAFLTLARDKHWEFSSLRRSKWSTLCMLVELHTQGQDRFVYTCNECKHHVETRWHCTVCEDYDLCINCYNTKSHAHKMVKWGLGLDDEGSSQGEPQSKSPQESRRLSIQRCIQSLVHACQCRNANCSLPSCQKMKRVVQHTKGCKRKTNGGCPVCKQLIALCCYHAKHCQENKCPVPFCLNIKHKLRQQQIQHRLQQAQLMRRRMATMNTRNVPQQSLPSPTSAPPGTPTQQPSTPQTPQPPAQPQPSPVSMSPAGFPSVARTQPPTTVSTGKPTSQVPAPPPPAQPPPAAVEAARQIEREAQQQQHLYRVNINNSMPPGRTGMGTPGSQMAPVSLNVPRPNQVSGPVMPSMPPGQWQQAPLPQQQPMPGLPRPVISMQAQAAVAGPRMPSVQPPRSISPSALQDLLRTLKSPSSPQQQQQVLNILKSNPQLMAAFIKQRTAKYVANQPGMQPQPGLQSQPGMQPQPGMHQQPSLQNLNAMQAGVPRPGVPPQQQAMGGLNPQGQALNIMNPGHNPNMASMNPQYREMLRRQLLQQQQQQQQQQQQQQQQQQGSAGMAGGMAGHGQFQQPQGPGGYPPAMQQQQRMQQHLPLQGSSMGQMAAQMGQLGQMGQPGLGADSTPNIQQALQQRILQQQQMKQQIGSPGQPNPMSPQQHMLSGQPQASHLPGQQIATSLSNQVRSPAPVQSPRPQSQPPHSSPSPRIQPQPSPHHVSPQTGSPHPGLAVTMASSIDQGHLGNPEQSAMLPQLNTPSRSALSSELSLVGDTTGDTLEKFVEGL", "assay": "CBP TR-FRET binding assay;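 also: displacement of a biotinylated small-molecule ligand from purified recombinant CBP read by TR-FRET, DMSO-only wells as control, IC50 from nonlinear curve fit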", "details": "His/Flag tagged CBP 4 nM, biotin-ligand 60 nM; read-out: CBP HTRF IC50", "units": {"IC50": "nM"}, "procedure": "IC50 Measurements for Inhibitors Using CBP TR FRET Binding Assay\nHis/Flag epitope tagged CBP was cloned, expressed, and purified to homogeneity. CBP binding and inhibition was assessed by monitoring the engagement of a biotinylated small molecule compound with the target using the TR-FRET assay technology (Perkin-Elmer). Specifically, in a 384 well ProxiPlate CBP (4 nM final) was combined with biotin-ligand (60 nM final) in 50 mM HEPES (pH 7.5), 50 mM NaCl, 1 mM TCEP, 0.01% (w/v) BSA, and 0.008% (w/v) Brij-35 either in the presence of DMSO (final 0.2% DMSO) or compound dilution series in DMSO. […] After twenty minutes of equilibration, the plates were read on an Envision instrument and IC50S calculated using a four parameter non-linear curve fit.", "values": [{"smiles": "CNC(=O)N1CCNc2ccc(N3CCCc4cc(-c5cnn(C)c5)c(C(F)F)cc43)cc2C1", "note": "[Example 16, 7-[7-(difluoromethyl)-6-(1-methylpyrazol-4-yl)-3,4-dihydro-2H-quinolin-1-yl]-N-methyl-1,2,3,5-tetrahydro-1,4-benzodiazepine-4-carboxamide]", "IC50": 8}, {"smiles": "CC(=O)N1CCc2c(cc(N3CCCc4cc(-c5cnn(C)c5)c(C(F)F)cc43)c(=O)n2C)C1", "note": "[Example 17]", "IC50": 47}, {"smiles": "CNC(=O)N1CCOc2ccc(-c3cccc(-c4cnn(C)c4)c3C(F)F)cc2C1", "note": "[Example 77, 7-(2-(difluoromethyl)-3-(1-methyl-1H-pyrazol-4-yl)phenyl)-N-methyl-2,3-dihydrobenzo[f][1,4]oxazepine-4(5H)-carboxamide]", "IC50": 187}, {"smiles": "CCC(=O)N1CCOc2ccc(N3CCCc4cc(-c5cnn(C)c5)ccc43)cc2C1", "note": "[Example 79, 1-(7-(6-(1-methyl-1H-pyrazol-4-yl)-3,4-dihydroquinolin-1(2H)-yl)-2,3-dihydrobenzo[f][1,4]oxazepin-4(5H)-yl)propan-1-one]", "IC50": 77}, {"smiles": "C[C@H]1Nc2c(cccc2N2CCCc3cc(-c4cnn(C)c4)ccc32)NC1=O", "note": "[Example 82, (R)-3-methyl-5-(6-(1-methyl-1H-pyrazol-4-yl)-3,4-dihydroquinolin-1(2H)-yl)-3,4-dihydroquinoxalin-2(1H)-one]", "IC50": 325}, {"smiles": "CNC(=O)c1ccc2c(c1)c(N1CCCc3cc(-c4cnn(C)c4)ccc31)nn2C1CCOCC1", "note": "[Example 84]", "IC50": 87}, {"smiles": "CNC(=O)N1CCN(C)c2ccc(-c3ccccc3C)cc2C1", "note": "[Example 85, N,1-dimethyl-7-(o-tolyl)-3,5-dihydro-2H-1,4-benzodiazepine-4-carboxamide]", "IC50": 450}, {"smiles": "CNC(=O)N1CCOc2ccc(-c3cccc4nc(-c5ccc(OC)cc5)cn34)cc2C1", "note": "[Example 86, 7-[2-(4-methoxyphenyl)imidazo[1,2-a]pyridin-5-yl]-N-methyl-3,5-dihydro-2H-1,4-benzoxazepine-4-carboxamide]", "IC50": 81}, {"smiles": "CC(=O)N1CCCc2cc(N3CCCc4cc(-c5cnn(C)c5)c(C(F)F)cc43)ccc21", "note": "[Example 87, 1-[6-[7-(difluoromethyl)-6-(1-methylpyrazol-4-yl)-3,4-dihydro-2H-quinolin-1-yl]-3,4-dihydro-2H-quinolin-1-yl]ethanone]", "IC50": 429}, {"smiles": "CC(=O)N1CCc2c(cc(-c3cccc4cc(-c5cnn(C)c5)ncc34)c(=O)n2C)C1", "note": "[Example 88, 6-acetyl-1-methyl-3-[3-(1-methylpyrazol-4-yl)-8-isoquinolyl]-7,8-dihydro-5H-1,6-naphthyridin-2-one]", "IC50": 258}, {"smiles": "CN1C(=O)C(=O)c2ccc(N3CCCc4cc(-c5cnn(C)c5)c(C(F)F)cc43)cc21", "note": "[Example 89, 6-[7-(difluoromethyl)-6-(1-methylpyrazol-4-yl)-3,4-dihydro-2H-quinolin-1-yl]-1-methyl-indoline-2,3-dione]", "IC50": 78}, {"smiles": "Cn1cc(-c2cc3c(cc2C(F)F)N(c2ccc4oc(=O)n(C)c4c2)CCC3)cn1", "note": "[Example 91, 5-[7-(difluoromethyl)-6-(1-methylpyrazol-4-yl)-3,4-dihydro-2H-quinolin-1-yl]-3-methyl-1,3-benzoxazol-2-one]", "IC50": 481}, {"smiles": "Cn1cc(-c2cc3cccc(-c4ccc5c(c4)n(C)c(=O)n5C)c3cn2)cn1", "note": "[Example 94, 1,3-dimethyl-5-(3-(1-methyl-1H-pyrazol-4-yl)isoquinolin-8-yl)-1H-benzo[d]imidazol-2(3H)-one]", "IC50": 90}, {"smiles": "CN1CCN(c2ccc3c(c2)n(C)c(=O)n3C)c2cc(C(F)(F)F)c(-c3cnn(C)c3)cc21", "note": "[Example 95, 1,3-dimethyl-5-(4-methyl-6-(1-methyl-1H-pyrazol-4-yl)-7-(trifluoromethyl)-3,4-dihydroquinoxalin-1(2H)-yl)-1H-benzo[d]imidazol-2(3H)-one]", "IC50": 30}, {"smiles": "CCCc1cc(N2CCCc3cc(-c4cnn(C)c4)c(C(F)F)cc32)cc2c1n(C)c(=O)n2C", "note": "[Example 99, 6-(7-(difluoromethyl)-6-(1-methyl-1H-pyrazol-4-yl)-3,4-dihydroquinolin-1(2H)-yl)-1,3-dimethyl-4-propyl-1H-benzo[d]imidazol-2(3H)-one]", "IC50": 19}, {"smiles": "C#Cc1cc(N2CCCc3cc(-c4cnn(C)c4)c(C(F)F)cc32)cc2c1n(C)c(=O)n2C", "note": "[Example 101, 6-(7-(difluoromethyl)-6-(1-methyl-1H-pyrazol-4-yl)-3,4-dihydroquinolin-1(2H)-yl)-4-ethynyl-1,3-dimethyl-1H-benzo[d]imidazol-2(3H)-one]", "IC50": 12}, {"smiles": "C#Cc1cc2c(cc1N1CCCc3cc(-c4cnn(C)c4)c(C(F)F)cc31)n(C)c(=O)n2C", "note": "[Example 102, 5-(7-(difluoromethyl)-6-(1-methyl-1H-pyrazol-4-yl)-3,4-dihydroquinolin-1(2H)-yl)-6-ethynyl-1,3-dimethyl-1H-benzo[d]imidazol-2(3H)-one]", "IC50": 21}, {"smiles": "CNC(=O)c1ccc2c(c1)n(-c1cccc3cc(-c4cnn(C)c4)ncc13)c(=O)n2C", "note": "[Example 103, N,1-dimethyl-3-(3-(1-methyl-1H-pyrazol-4-yl)isoquinolin-8-yl)-2-oxo-2,3-dihydro-1H-benzo[d]imidazole-5-carboxamide]", "IC50": 222}, {"smiles": "CNC(=O)c1cn(C)c2c(OC)cc(N3CCCc4cc(-c5cnn(C)c5)c(C(F)F)cc43)cc12", "note": "[Example 106, 5-(7-(difluoromethyl)-6-(1-methyl-1H-pyrazol-4-yl)-3,4-dihydroquinolin-1(2H)-yl)-7-methoxy-N,1-dimethyl-1H-indole-3-carboxamide]", "IC50": 16}, {"smiles": "CCc1cc(-c2ccccc2C)cc2c1OCCN(C(=O)NC)C2", "note": "[Example 109, 9-ethyl-N-methyl-7-(o-tolyl)-2,3-dihydrobenzo[f][1,4]oxazepine-4(5H)-carboxamide]", "IC50": 273}, {"smiles": "CNC(=O)N1CCOc2c(cc(-c3ccccc3C)cc2C(C)C)C1", "note": "[Example 110, 9-isopropyl-N-methyl-7-(o-tolyl)-2,3-dihydrobenzo[f][1,4]oxazepine-4(5H)-carboxamide]", "IC50": 201}, {"smiles": "CNC(=O)N1CCOc2c(cc(-c3ccccc3C)cc2OC)C1", "note": "[Example 111, 9-methoxy-N-methyl-7-(o-tolyl)-2,3-dihydrobenzo[f][1,4]oxazepine-4(5H)-carboxamide]", "IC50": 409}, {"smiles": "CNC(=O)N1Cc2cc(N3CCCc4cc(-c5cnn(C)c5)c(C(F)F)cc43)ccc2OC(C)C1", "note": "(stereo not drawn) [Example 114, 7-(7-(difluoromethyl)-6-(1-methyl-1H-pyrazol-4-yl)-3,4-dihydroquinolin-1(2H)-yl)-N,2-dimethyl-2,3-dihydrobenzo[f][1,4]oxazepine-4(5H)-carboxamide]", "IC50": 51}, {"smiles": "C[C@H]1Oc2c(cccc2N2CCCc3cc(-c4cnn(C)c4)c(C(F)F)cc32)NC1=O", "note": "[Example 115, (R)-8-(7-(difluoromethyl)-6-(1-methyl-1H-pyrazol-4-yl)-3,4-dihydroquinolin-1(2H)-yl)-2-methyl-2H-benzo[b][1,4]oxazin-3(4H)-one]", "IC50": 77}, {"smiles": "CN1Cc2c(cccc2N2CCCc3cc(-c4cnn(C)c4)c(C(F)F)cc32)NC1=O", "note": "[Example 116, 5-(7-(difluoromethyl)-6-(1-methyl-1H-pyrazol-4-yl)-3,4-dihydroquinolin-1(2H)-yl)-3-methyl-3,4-dihydroquinazolin-2(1H)-one]", "IC50": 26}, {"smiles": "CNC(=O)[C@H]1CCc2ccc(N3CCCc4cc(-c5cnn(C)c5)c(C(F)F)cc43)nc21", "note": "[Example 117, (S)-2-(7-(difluoromethyl)-6-(1-methyl-1H-pyrazol-4-yl)-3,4-dihydroquinolin-1(2H)-yl)-N-methyl-6,7-dihydro-5H-cyclopenta[b]pyridine-7-carboxamide]", "IC50": 40}, {"smiles": "CNC(=O)[C@@H]1CCc2ccc(N3CCCc4cc(-c5cnn(C)c5)c(C(F)F)cc43)nc21", "note": "[Example 118, (R)-2-(7-(difluoromethyl)-6-(1-methyl-1H-pyrazol-4-yl)-3,4-dihydroquinolin-1(2H)-yl)-N-methyl-6,7-dihydro-5H-cyclopenta[b]pyridine-7-carboxamide]", "IC50": 3240}, {"smiles": "CNC(=O)c1ccc2cncc(N3CCCc4cc(-c5cnn(C)c5)c(C(F)F)cc43)c2c1", "note": "[Example 119, 4-(7-(difluoromethyl)-6-(1-methyl-1H-pyrazol-4-yl)-3,4-dihydroquinolin-1(2H)-yl)-N-methylisoquinoline-6-carboxamide]", "IC50": 34}, {"smiles": "CNC(=O)c1cccc2oc(-c3cccc4cc(-c5cnn(C)c5)ncc34)nc12", "note": "[Example 121, N-methyl-2-(3-(1-methyl-1H-pyrazol-4-yl)isoquinolin-8-yl)benzo[d]oxazole-4-carboxamide]", "IC50": 274}, {"smiles": "CNC(=O)Nc1cccc(N2CCCc3cc(-c4cnn(C)c4)c(C(F)F)cc32)n1", "note": "[Example 122, 1-(6-(7-(difluoromethyl)-6-(1-methyl-1H-pyrazol-4-yl)-3,4-dihydroquinolin-1(2H)-yl)pyridin-2-yl)-3-methylurea]", "IC50": 88}, {"smiles": "CNC(=O)c1cn(C)nc1C(=O)Nc1cccc2cc(-c3cnn(C)c3)ncc12", "note": "[Example 124, N^4,1-dimethyl-N^3-(3-(1-methyl-1H-pyrazol-4-yl)isoquinolin-8-yl)-1H-pyrazole-3,4-dicarboxamide]", "IC50": 14}, {"smiles": "CNC(=O)c1ccc2c(n1)c(N1CCCc3cc(-c4cnn(C)c4)c(C(F)F)cc31)nn2C1CCOCC1", "note": "[Example 125, 3-(7-(difluoromethyl)-6-(1-methyl-1H-pyrazol-4-yl)-3,4-dihydroquinolin-1(2H)-yl)-N-methyl-1-(tetrahydro-2H-pyran-4-yl)-1H-pyrazolo[4,3-b]pyridine-5-carboxamide]", "IC50": 2}, {"smiles": "CNC(=O)C1CCc2c(c(N3CCCc4cc(-c5cnn(C)c5)c(C(F)F)cc43)nn2C2CCOCC2)C1", "note": "(stereo not drawn) [Example 126, 3-(7-(difluoromethyl)-6-(1-methyl-1H-pyrazol-4-yl)-3,4-dihydroquinolin-1(2H)-yl)-N-methyl-1-(tetrahydro-2H-pyran-4-yl)-4,5,6,7-tetrahydro-1H-indazole-5-carboxamide]", "IC50": 184}]}]}
